Measurements from patent US20250381306A1, “COMPOSITIONS AND METHODS FOR TREATING DIABETIC CARDIOMYOPATHY” (UNIVERSITY OF UTAH RESEARCH FOUNDATION, priority 2022, published 2025).

Test system: cardiomyocytes
Assay: Adult primary cardiomyocyte glucose uptake test
Format: cell-based, mouse
Details: db/db cardiomyocytes, 10 nM insulin, metformin (20 µM) positive control
Procedure: Adult mouse cardiomyocytes were isolated from both male and female mice with collagenase II (2 mg/mL, Worthington Biochemical Corporation). Freshly isolated cardiomyocytes were seeded in laminin-precoated culture dishes and cultured in perfusion buffer (120.4 mM NaCl, 14.7 mM KCl, 0.6 mM KH2PO4, 0.6 mM Na2HPO4, 1.2 mM MgSO4×7H2O, 10 mM Hepes, 4.6 mM NaHCO3, 30 mM taurine, and 5.5 mM glucose) for 1 hour in 37° C. and 5% CO2 incubator prior to further experiments.
For glucose uptake assays, freshly isolated CMCs were seeded and cultured in laminin-precoated 96-well plates for 1 hour prior to the test. Cells were then washed twice with glucose-free perfusion buffer (120.4 mM NaCl, 14.7 mM KCl, 0.6 mM KH2PO4, 0.6 mM Na2HPO4, 1.2 mM MgSO4: 7H2O, 10 mM HEPES) and starved in starvation buffer (glucose-free perfusion buffer containing 1 mM pyruvate, 0.1% BSA) for 40 min. Metformin (0, 20 μM) was loaded together with starvation buffer in the indicated groups. Cells were then stimulated in the absence or presence of insulin (0, 10 nM) (Sigma-Aldrich) for 20 min. Following the manufacturer's instructions, 2 DG-glucose uptake test in CMCs was then determined by Glucose Uptake Assay kit (Abcam) and quantified with a FlexStation 3 plate reader (Molecular Devices).

CN(C)C(=N)N=C(N)N [metformin]
insulin-stimulated uptake of 2-Deoxy-D-glucose: rescue
